The values that follow come from patent publication US20120225123A1, “Use of Synergistic Combinations of an Avermectin and an Antineoplastic Compounds for the Treatment of Hematological Malignancies” (UNIVERSITY HEALTH NETWORK, priority 2009, published 2012).

Read-outs that look alike come from different tables or passages of the source.

The subject of series [1] is OCI-AML2 cells. Briefly: Cell death, viability and cell cycle in OCI-AML2 cells. Type of series: cell-based, human. As to the method:
(§1) Cell growth and viability was assessed by the MTS assay (Promega, Madison, Wis.) according to the manufacturer's instructions and as previously described.^12 Cell death was measured by Annexin V-fluoroscein isothiocyanate (FITC) and Propidium Iodide (PI; Biovision Research Products, Mountain View, Calif.) staining and flow cytometry according to the manufacturer's instructions and as previously described.^13 To identify CD34+ cells, a normal PBSC sample was co-stained with PE-anti-CD34+ (Beckman Coulter, Marseille France), and APC-anti-CD45 (Becton Dickenson, San Jose Calif.).
Cell cycle analysis was performed as described previously.^15 Briefly, cells were harvested, washed with cold PBS, and resuspended in 80% cold ethanol. Cells were then treated with 100 ng/mL DNase-free RNase A (Invitrogen) at 37° C. for 30 min, washed with cold PBS, and resuspended in PBS with 50 μg/mL propidium iodide. DNA content was analyzed by flow cytometry (FACSCalibur; Becton Dickinson). The percentage of cells in each phase of the cell cycle was calculated with FlowJo version 8.8 (TreeStar, Ashland, Oreg.).

Another series concerns mice. Particulars: oral; cited from earlier work.
For the next series, the system named is DU145 cells. In words: Intracellular chloride (SPQ) and cell size (forward light scatter), DU145. The format is cell-based, human. The following applies: 10 μM IVM, 2 hours. Here is the method:
(§2) Intracellular chloride concentration was measured using a fluorescent indicator for chloride, SPQ as previously described.^16 Upon binding halide ions like chloride, SPQ is quenched resulting in a decrease in fluorescence without a shift in wavelength. […] After 15 minutes of incubation with SPQ, cells were diluted 15:1 in HBSS and centrifuged. The supernatant was removed, cells were resuspended in 200 μl of fresh HBSS and incubated for 15 minutes in 37° C. to allow recovery from the hypotonic shock. Cells were then stained with propidium iodide and SPQ fluorescence in the PI negative cells was determined using an LSR-II flow cytometer (Beckton Dickonson, San Jose, Calif.) (excitation 351 nm, emission 485 nm). In parallel, changes in cell size were determined by measuring forward light scatter by flow cytometry. Results were analyzed with FlowJo version 8.8 (TreeStar, Ashland, Oreg.).

In series [2] the test system is U937 and TEX leukemia cells; primary AML cells. Briefly: Reactive oxygen species, Carboxy-H2DCFDA staining, sensitive cells. Type of series: cell-based, human.
For series [3] the following is noted: cited from earlier work.
Series [4] deals with OCI-AML2, HL60, and KG1a leukemia cell lines. Briefly: Chemical screen for cytotoxic compounds, MTS assay. Type of series: cell-based, human. The following applies: 72 hours, all cell lines in the screen, read-out: EC50, reduced cell viability. As to the method:
HL60, KG1a, and OCI-AML2 leukemia cells were seeded into 96-well polystyrene tissue culture plates (Nunc). After seeding, cells were treated with aliquots of the chemical library (=100) at increasing concentrations (3 to 50 μM) with a final DMSO concentration of 0.5%. Seventy two hours after incubation, cell growth and viability was measured by the MTS assay. Liquid handling was performed by a Biomek FX Laboratory Automated Workstation (Beckman Coulter Fullerton, Calif.).
as §1
A small chemical library (n=100) focused on anti-microbials and metabolic regulators with wide therapeutic windows and well understood pharmacokinetics was compiled. […] Seventy two hours after incubation, cell growth and viability was measured by the MTS assay. […]
(Tetrazolium dyes change colour on reduction, which living cells bring about.)

Series [5] has as its system primary normal hematopoietic cells (PBSC). Briefly: Cell viability by Annexin V and PI staining, normal hematopoietic cells. The format is cell-based, human. Particulars: 48 hours, concentrations up to 20 μM. As to the method:
Primary human acute myeloid leukemia (AML) samples were isolated from fresh bone marrow and peripheral blood samples of consenting patients. Similarly, primary normal hematopoietic cells were obtained from healthy consenting volunteers donating peripheral blood mononuclear cells
(PBSCs) for stem cell transplantation. The mononuclear cells were isolated from the samples by Ficoll density centrifugation. Primary cells were cultured at 37° C. in IMDM supplemented with 20% FCS and appropriate antibiotics.
as §1
Given the cytotoxicity of IVM toward leukemia cell lines, its cytotoxicity was compared to primary normal hematopoietic cells and acute myeloid leukemia (AML) patient samples (n=4 intermediate risk cytogenetics, n=1 good risk cytogenetics, and n=1 unknown cytogenetics). […]

In series [6] the test system is OCI-AML2 cells. In words: Intracellular chloride (SPQ) and cell size (forward light scatter), OCI-AML2. Type of series: cell-based, human. As to the method: as §2
For series [7] the following is noted: cited from earlier work. The source holds these as a separate data set.
Series [8] deals with OCI-AML2, K562 and MDAY-D2 leukemia cells in NOD/SCID mice. Briefly: Mouse models of leukemia, subcutaneous tumors, oral ivermectin. Type of series: in vivo. Here is the method:
MDAY-D2 murine leukemia cells, and K562 and OCI-AML2 human leukemia cells (2.5×10^5) were injected subcutaneously into both flanks of sub-lethally irradiated (3.5 Gy) NOD/SCID mice (Ontario Cancer
Institute, Toronto, ON). Four (OCI-AML2), five (MDAY-D2), or seven (K562) days after injection, once tumors were palpable, mice were then treated daily for 10 days (K562) or treated with 8 doses over 10 days (OCI-AML2) with IVM (3 mg/kg) by oral gavage in water or vehicle control (n=10 per group). […] Tumor volume (tumor length x width^2×0.5236) was measured three times a week using calipers. Fourteen (MDAY-D2), 15 (OCI-AML2) or 17 (K562) days after injection of cells, mice were sacrificed, tumors excised and the volume and weight of the tumors were measured.
Given the effects of IVM as a potential anti-leukemic agent, IVM was evaluated in mouse models of leukemia. Human leukemia (OCI-AML2 and K562) and murine leukemia (MDAY-D2) cells (MDAY-D2, OCI-AML2 and K562) were injected subcutaneously into the flank of NOD/SCID mice. Four (OCI-AML2), five (MDAY-D2), or seven (K562) days after injection, once tumors were palpable, mice were then treated daily for 10 days (K562) or treated with 8 doses over 10 days (OCI-AML2) with IVM (3 mg/kg) by oral gavage in water or vehicle control (n=10 per group). […] Tumor volume and weight was measured over time.

Where [9] appears, read: healthy male volunteers, 14 mg capsule of radiolabelled ivermectin.
Where [10] appears, read: onchocerciasis patients, single oral dose of 150 μg/kg.

Regarding ivermectin, in the series on OCI-AML2 cells [1] (24 hours of treatment), the cell death entry is listed as “induced cell death”. For the same substance, in the series with OCI-AML2 cells [1] (times and concentrations that preceded cell death, PI DNA content), the cell cycle result is recorded as “induced G2 cell cycle arrest”. Moreover, in the series with mice, the median lethal dose (LD50) was 28 to 30 mg/kg. In addition, in the series with DU145 cells, the chloride influx entry was “chloride influx was not observed”. In series [2] (U937 and TEX cells, 2 hours after treatment), the ROS generation result is on record as “demonstrated increased ROS generation”. Also, the ROS generation entry in series [2] (primary AML cells) was “demonstrated increased ROS generation”. The “time over which IVM and/or metabolites are excreted in the feces” value in series [3] (estimated) is ~12 days. In series [3] (setting [9]), the half-life was 11.8 h and the “mean Tmax” value is 6 h. The “administered dose excreted in the urine” value in series [3] (in vivo) is recorded as < 1%. For the same substance, in [3] (setting [10]), the “area under the curve over 48 hours” value was 2852 ng·h/mL, the maximum plasma concentration is 52.0 ng/mL and the “time to maximum plasma concentration” value was 5.2 h. The 50% effective concentration (EC50) in series [4] is < 10 µM. For the same substance, in series [5], the “induction of cell death” value is “did not induce cell death”. The “intracellular chloride, SPQ fluorescence” value with OCI-AML2 cells [6] (10 μM IVM, 2 hours) is “decreased SPQ fluorescence”. In the series on OCI-AML2 cells [6] (2 hours of treatment, flow cytometry), the cell size entry was “caused an increase in cell size”. The adverse effects entry in series [7] (healthy volunteers, oral, dose of 120 (~2 mg/kg)) is listed as “no serious adverse effects were noted”. In addition, in series [7] (patients with spinal injury, up to 1.6 mg/kg subcutaneously twice weekly for up to 12 weeks), the adverse effects result is reported as “no significant adverse effects were reported”. For the same substance, the tolerability result in series [8] (MDAY-D2 mice, dosage escalated 3 to 6 mg/kg) is reported as “well tolerated”. Also, the “decrease in tumor weight and volume compared to buffer control” value in [8] (oral gavage 3 mg/kg (MDAY-D2 escalated to 6 mg/kg), all 3 models, p<0.05) is listed as “up to 70%”. Also, in series [8] (oral ivermectin, all 3 models), the gross organ toxicity result is on record as “without any gross organ toxicity”.

A word on the LD50: it is the dose expected to kill half of the subjects tested. Usually half-life stands for the time in which the quantity being followed falls by half. A word on the EC50: it is the midpoint of the concentration-response curve.
